Measured values: patent US4782154A, “Isoquinoline derivatives” (Mitsui Toatsu Chemicals, Inc., priority 1986, dated 1988)

Tested on: Mongrel dogs
Experiment: Recovery of LV dP/dtmax in propranolol-induced heart failure state, anesthetized dogs (Test Example 1)
Format: in vivo
Conditions: iv; for ED100: Canis lupus familiaris, dose required for recovering the reduction in LV dP/dtmax to the value before propranolol administration, anesthetized mongrel dogs; for Blood pressure: change in BP at ED100, variation coefficient relative to the values of the stable (heart failure) state; for Blood pressure / Number of heart beat: dogs; for Number of heart beat: change in HR at ED100, variation coefficient relative to the values of the stable (heart failure) state
Protocol: Mongrel dogs of either sex, weighing 8 to 12 kg, were anesthetized with sodium pentobarbital (30 mg/kg i.v.). The left ventricular pressure (LVP) was measured with a sensor tip transducer and the maximum rate of rise of LVP (LV dP/dtmax) was calculated by an electronic differentiator. Polyethylene cannulae were inserted into the femoral artery to measure systemic blood pressure (BP) and into the femoral veins for administration or infusion of chemicals. BP was measured with a pressure transducer and heart rate (HR) by a cardiotachometer from the pressure pulse. The respective parameters were simultaneously recorded on a multichannel polygraph.
To induce and maintain heart failure state, propranolol was administered in a bolus injection (4 mg/kg i.v.) followed by an infusion (0.1 mg/kg/min i.v.). […] The dose of tested chemicals required for recovering the reduction in the LV dP/dtmax to the value before the propranolol administration was determined and defined as an ED100. The changes in BP and HR at ED100 were expressed by the variation coefficient relative to the values of the stable state.

Structure (SMILES)	ED100 [mg/kg]	Blood pressure [%]	Number of heart beat
CCc1[nH]c(=O)c(C(C)=O)c2c1CC(c1ccncc1)CC2 (stereo not drawn) [Example 1, 4-acetyl-1-ethyl-7-(4-pyridyl)-5,6,7,8-tetrahydro-3(2H)isoquinolinone]	1	-32.1	+17.3%
CCCCc1[nH]c(=O)c(C(C)=O)c2c1CC(c1ccncc1)CC2 (stereo not drawn) [Example 2, 4-acetyl-1-butyl-7-(4-pyridyl)-5,6,7,8-tetrahydro-3-(2H)isoquinolinone]	3	-11.5	+18.3%
CC(=O)c1c2c(c(C3CC3)[nH]c1=O)CC(c1ccncc1)CC2 (stereo not drawn) [Example 3]	3	-27.8	+30.6%
CCC(=O)c1c2c(c(C)[nH]c1=O)CC(c1ccncc1)CC2 (stereo not drawn) [Example 4, 1-methyl-4-propionyl-7-(4-pyridyl)-5,6,7,8-tetrahydro-3(2H)isoquinolinone]	3	-18.0	+26.2%
CCCC(=O)c1c2c(c(C)[nH]c1=O)CC(c1ccncc1)CC2 (stereo not drawn) [Example 5, 4-butylyl-1-methyl-7-(4-pyridyl)5,6,7,8-tetrahydro-3(2H)isoquinolinone]	3	-20.2	+23.7%
CCCCC(=O)c1c2c(c(C)[nH]c1=O)CC(c1ccncc1)CC2 (stereo not drawn) [Example 6, 1-methyl-7-(4-pyridyl)5,6,7,8-tetrahydro-4-valeryl-3(2H)isoquinolinone]	3	-10.5	+19.8%
Cc1[nH]c(=O)c(C(=O)c2ccccc2)c2c1CC(c1ccncc1)CC2 (stereo not drawn) [Example 7, 4-benzoyl-1-methyl-7-(4-pyridyl)5,6,7,8-tetrahydro-3(2H)isoquinolinone]	3	-28.3	+29.6%
CCc1c2c(c(C)[nH]c1=O)CC(c1ccncc1)CC2 (stereo not drawn) [Example 8, 4-ethyl-1-methyl-7-(4-pyridyl)-5,6,7,8-tetrahydro-3(2H)isoquinolinone]	0.03	-22.5	+25.3%
CCCc1c2c(c(C)[nH]c1=O)CC(c1ccncc1)CC2 (stereo not drawn) [Example 9, 1-methyl-4-propyl-7-(4-pyridyl)-5,6,7,8-tetrahydro-3(2H)isoquinolinone]	0.3	-16.6	+14.4%
Cc1[nH]c(=O)c(C=O)c2c1CC(c1ccncc1)CC2 (stereo not drawn) [Example 10, 4-formyl-1-methyl-7-(4-pyridyl)-5,6,7,8-tetrahydro-3(2H)isoquinolinone]	3	-17.5	+24.2%
Cc1[nH]c(=O)c(C)c2c1CC(c1ccncc1)CC2 (stereo not drawn) [Example 11, 1,4-dimethyl-7-(4-pyridyl)-5,6,7,8-tetrahydro-3(2H)isoquinolinone]	0.3	-28.5	+21.0%
Cc1[nH]c(=O)c(C(C)O)c2c1CC(c1ccncc1)CC2 (stereo not drawn) [Example 12, 4-(1-hydroxyethyl)-1-methyl-7-(4-pyridyl)-5,6,7,8-tetrahydro-3(2H)isoquinolinone]	3	-19.7	+22.5%
Cc1[nH]c(=O)c(CO)c2c1CC(c1ccncc1)CC2 (stereo not drawn) [Example 13, 4-(hydroxymethyl)-1-methyl-7-(4-pyridyl)-5,6,7,8-tetrahydro-3(2H)isoquinolinone]	0.3	-2.6	+20.0%
Cc1[nH]c(=O)c(C(C)(C)O)c2c1CC(c1ccncc1)CC2 (stereo not drawn) [Example 14, 4-(2-(2-hydroxypropyl))-1-methyl-7-(4-pyridy)-5,6,7,8-tetrahydro-3(2H)isoquinolinone]	0.1	-9.3	+32.6%
C=C(C)c1c2c(c(C)[nH]c1=O)CC(c1ccncc1)CC2 (stereo not drawn) [Example 15, 4-isopropenyl-1-methyl-7-(4-pyridyl)-5,6,7,8-tetrahydro-3(2H)isoquinolinone]	0.03	-16.4	+28.6%
Cc1[nH]c(=O)c(C(F)(F)C(F)(F)F)c2c1CC(c1ccncc1)CC2 (stereo not drawn) [Example 16, 1-methyl-4-pentafluoroethyl-7-(4-pyridyl)-5,6,7,8-tetrahydro-3(2H)isoquinolinone]	3	-15.9	+29.1%
CCc1c2c(c(C)[nH]c1=O)CC(c1ccccn1)CC2 (stereo not drawn) [Example 17, 4-ethyl-1-methyl-7-(2-pyridyl)-5,6,7,8-tetrahydro-3(2H)isoquinolinone]	0.1	-2.1	+15.0%
Cc1[nH]c(=O)c(C(C)(C)O)c2c1CC(c1ccccn1)CC2 (stereo not drawn) [Example 18, 4-(2-(2-hydroxypropyl))-1-methyl-7-(2-pyridyl)-5,6,7,8-teterahydro-3(2H)isoquinolinone]	0.3	-8.3	+30.1%
C=C(C)c1c2c(c(C)[nH]c1=O)CC(c1ccccn1)CC2 (stereo not drawn) [Example 19, 4-isopropenyl-1-methyl-7-(2-pyridyl)-5,6,7,8-teterahydro-3(2H)isoquinolinon]	0.1	-15.9	+27.6%
